# From US20140024653A1, “COMPOSITIONS AND METHODS FOR TREATING CANCER USING PI3K INHIBITOR AND MEK INHIBITOR” (priority 2011, published 2014)
# Like-named read-outs stand apart in the source and are kept apart here.
# Legend:
# [1] = test system: panel of 81 cancer cell lines; assay: SRB cell growth assay, 72 h, cell line panel; format: cell-based, human
# [2] = test system: PANC1; assay: SRB cell growth assay, 72 h; format: cell-based, human; conditions: single agent
# [3] = test system: BT20; assay: SRB cell growth assay, 72 h; format: cell-based, human; conditions: single agent
# [4] = test system: DU145; assay: SRB cell growth assay, 72 h; format: cell-based, human; conditions: single agent
# [5] = test system: CASKI; assay: SRB cell growth assay, 72 h; format: cell-based, human; conditions: single agent
# [6] = test system: EJ28; assay: SRB cell growth assay, 72 h; format: cell-based, human; conditions: single agent
# [7] = test system: HCT116; assay: SRB cell growth assay, 72 h; format: cell-based, human
# [8] = test system: A549; assay: SRB cell growth assay, 72 h; format: cell-based, human; conditions: for GI50: Homo sapiens
# [9] = test system: SKBR3; assay: SRB cell growth assay, 72 h; format: cell-based, human
# [10] = test system: MDAMB468; assay: SRB cell growth assay, 72 h; format: cell-based, human
# Procedure: (§1) Cell growth and treatment were performed in 96-well microtitre plates CELLSTAR® (Greiner Bio-One, Germany). Cells harvested from exponential phase cultures by trypsinization were plated in 150 μl of media at optimal seeding densities. The optimal seeding densities for each cell line were determined to ensure exponential growth for the duration of the experiment. All cells growing without anticancer agents were sub-confluent by the end of the treatment as determined by visual inspection.
# (§2) 150 μl of cells, after a 24-hour pre-growth period, were treated by mixing with 50 μl of the compound containing media (resulting in a final DMSO concentration of 0.1%). The cells were allowed to grow at 37° C. for 72 hours. In addition, all experiments contained a few plates with cells that were processed for measurement immediately after the 24 hours recovery period. These plates contained information about the cell number that existed before treatment, at time zero, and served to calculate the cytotoxicity.
# (§3) After treatment, cells were precipitated by addition of 10% TCA. Prior to fixation, the media was aspirated as described. After an hour of incubation at 4° C., the plates were washed two times with 400 μl of deionized water. Cells were then stained with 100 μl of a 0.08% wt/v SRB. The plates were allowed to sit for at least 30 min. and washed six times with 1% acetic acid to remove unbound stain. The plates were left to dry at room temperature and bound SRB was solubilized with 100 μl of 10 mM Tris base. Measurement of optical density was performed at 560 nm on a Victor 2 plate reader (Perkin Elmer, Germany). The SRB values for A375 and H460 cell lines were near to saturation (2.5 OD units) due to the high protein content of these cells, but not cell confluence. The measurements for these cells were performed at 520 nm instead of 560 nm.
# (§4) Using these measurements, cellular responses can be calculated for incomplete inhibition of cell growth (GI), complete inhibition of cell growth (T GI) and net loss of cells (LC) due to compound activity. […] This is the drug concentration causing a 50% reduction compared to the net protein increase in control cells during the drug incubation period. In other words, GI50 is IC50 corrected for time zero. Similar to IC90, calculated GI90 values are also reported for all compounds tested. TGI was calculated from Ti=Tz. […] It was calculated as 100×[(Ti−Tz)/Tz]=−50. However, due to 72 hours treatment, low cell seeding density was required and LC50 could rarely be achieved.
# [11] = test system: COLO678; assay: SRB cell growth assay, 72 h; format: cell-based; conditions: Homo sapiens
# Procedure: as §1, §2, §3, §4
# [12] = test system: resting Peripheral Blood Mononuclear Cells, PBMC; assay: SRB cell growth assay, 72 h, non-proliferating cells; format: cell-based
# Procedure: Cell lines were selected to represent 17 different indications with many different genetic variations and biochemical characteristics. In addition, the study included resting Peripheral Blood Mononuclear Cells, PBMC, as a model for non-proliferating cells.
# as §1, with “inspection. […]” for “inspection.”
# After treatment, cells were precipitated by addition of 10% TCA. […] Measurement of optical density was performed at 560 nm on a Victor 2 plate reader (Perkin Elmer, Germany). […]
# Using these measurements, cellular responses can be calculated for incomplete inhibition of cell growth (GI), complete inhibition of cell growth (T GI) and net loss of cells (LC) due to compound activity. […] Similar to IC90, calculated GI90 values are also reported for all compounds tested. TGI was calculated from Ti=Tz. […] It was calculated as 100×[(Ti−Tz)/Tz]=−50. […]
# [13] = test system: human colon carcinoma HCT 116; assay: HCT116 tumor growth in fluorescence molecular tomography study; format: in vivo, SCID mice; conditions: NS
# [14] = test system: human colon carcinoma HCT 116
# Procedure: Mice were over 18 g at start of treatment after an acclimatization time of at least 5 days. […] The mice were housed on a 12 hours light/dark cycle.
# Human colon carcinoma HCT 116 cells were purchased at American Type Culture Collection [(ATCC), Rockville, Md., USA). The HCT 116 cells were cultured in Dulbecco's modified Eagle's medium (DMEM) (Invitrogen).
# The animals required to begin a given experiment were pooled and implanted monolaterally on day 0. Treatments were administered on measurable tumors. The solid tumors were allowed to grow to the desired volume range (animals with tumors not in the desired range were excluded). The mice were then pooled and unselectively distributed to the various treatment and control groups. […] The dosages are expressed in mg/kg, based on the body weight at start of therapy. Mice were checked daily, and adverse clinical reactions noted. Each group of mice was weighed as a whole daily until the weight nadir was reached. Then, groups were weighed once to thrice weekly until the end of the experiment. Tumors were measured with a caliper 2 to 3 times weekly until final sacrifice for sampling time, tumor reached 2000 mm^3 or until the animal died (whichever comes first). Solid tumor volumes were estimated from two-dimensional tumor measurements and calculated according to the following equation:
# Animal body weights included the tumor weight.
# Changes in tumor volume for each treated (T) and control (C) group were calculated for each tumor by subtracting the tumor volume on the day of first treatment (staging day) from the tumor volume on the specified observation day. The median ΔT is calculated for the treated group, and the median ΔC is calculated for the control group. Then the ratio ΔT/ΔC is calculated and expressed as a percentage. The dose is considered as therapeutically active when ΔT/ΔC is lower than 40% and very active when ΔT/ΔC is lower than 10%.
# The percent of tumor regression is defined as the % of tumor volume decrease in the treated group at a specified observation day compared to its volume on the first day of treatment. At a specific time point and for each animal, % regression is calculated. The median % regression is then calculated for the group using the following equation:
# Partial regression: Regressions are defined as partial if the tumor volume decreases to 50% of the tumor volume at the start of treatment.
# Complete regression: The CR is achieved when tumor volume=0 mm^3 (CR is considered when tumor volume cannot be recorded).
# [15] = study 1, (1) 5 mg/kg PO daily days 11-18
# [16] = study 2, (1) 10 mg/kg PO daily days 11-18 (day 17: 20 mg/kg)
# [17] = study 2, (1) 20 mg/kg PO daily days 11-18
# [18] = study 3, (1) 10 mg/kg PO daily days 11-20
# [19] = study 3, (1) 20 mg/kg PO daily days 11-20
# [20] = study 4, (1) 10 mg/kg PO daily days 11-20
# [21] = study 4, (1) 20 mg/kg PO daily days 11-20
# [22] = study 1, (2b) 30 mg/kg PO daily days 11-18
# [23] = study 2, (2b) 20 mg/kg PO daily days 11-18
# [24] = study 4, (2b) 20 mg/kg PO daily days 11-20
smiles,measurement,setting,value
"O=C(NC[C@H](O)CO)c1ccncc1Nc1ccc(I)cc1F [Compound (1), N—((S)-2,3-dihydroxypropyl)-3-(2-fluoro-4-iodo-phenylamino)isonicotinamide]",cell lines sensitive below 100 nM,[1]; 82 cell lines,27 of 82
same,IC50,"[1]; Homo sapiens, median of cell lines tested, read-out: median sensitivity",490 nM
same,IC50,"[1]; Homo sapiens, sensitive cell lines of the panel, read-out: Efficacy in sensitive cell lines",4 to 5 nM
same,difference between the most and least sensitive cell lines,[1]; panel,10.000 fold
same,z-score MSC6369,[2],3.00
same,activity (cell growth inhibition),[2]; up to 50 μM,minimal activity
same,z-score MSC6369,[3],0.02
same,z-score MSC6369,[4],0.73
same,z-score MSC6369,[5],1.55
same,z-score MSC6369,[6],−0.68
same,z-score MSC6369,[7]; single agent,−0.32
same,GI50,[8],300 nM
same,z-score MSC6369,[8]; single agent,−0.11
same,sensitivity,[9]; single agent,non-sensitive
same,z-score MSC6369,[9]; single agent,0.69
same,activity (cell growth inhibition),"[10]; single agent, up to 50 μM",minimal activity
same,IC50,"[11]; COLO-678, most sensitive cell lines",4.8 to 8 nM
same,activity in resting (arrested) PBMC,[12],no activity
same,ΔT/ΔC at the end of study,[13]; (1) 10 mg/kg oral daily day 11 to day 17,40%
same,Average body weight change in % per mouse at nadir,[14]; [15],−3.4 (14) %
same,Drug death,[14]; [15],0/7
same,Regressions Complete,[14]; [15],0/7
same,Regressions Partial,[14]; [15],0/7
same,Median ΔT/ΔC in % day 18,"[14]; study 1, (1) 5 mg/kg PO daily days 11-18, 5 mg/kg",70%
same,tolerability,"[14]; study 1, as single agents or used in combination","well-tolerated, inducing minimal BWL"
same,Average body weight change in % per mouse at nadir,[14]; [16],−2.2 (18) %
same,Drug death,[14]; [16],0/7
same,Median ΔT/ΔC in % day 18,[14]; [16],20%
same,Regressions Complete,[14]; [16],0/7
same,Regressions Partial,[14]; [16],0/7
same,Average body weight change in % per mouse at nadir,[14]; [17],−1.1 (15) %
same,Drug death,[14]; [17],0/7
same,Median ΔT/ΔC in % day 18,[14]; [17],22%
same,Regressions Complete,[14]; [17],0/7
same,Regressions Partial,[14]; [17],0/7
same,tolerability,"[14]; study 2, as single agents","well-tolerated, inducing minimal BWL"
same,Average body weight change in % per mouse at nadir,[14]; [18],−4.9 (20) %
same,Drug death,[14]; [18],0/10
same,Regressions Complete,[14]; [18],0/10
same,Regressions Partial,[14]; [18],0/10
same,Median ΔT/ΔC in % day 20,"[14]; study 3, (1) 10 mg/kg PO daily days 11-20, 10 mg/kg",43%
same,Average body weight change in % per mouse at nadir,[14]; [19],−3.6 (19) %
same,Drug death,[14]; [19],0/10
same,Median ΔT/ΔC in % day 20,[14]; [19],34%
same,Regressions Complete,[14]; [19],0/10
same,Regressions Partial,[14]; [19],0/10
same,tolerability,"[14]; study 3, as single agents","well-tolerated, inducing minimal BWL"
same,Average body weight change in % per mouse at nadir,[14]; [20],−2.3 (13) %
same,Drug death,[14]; [20],0/10
same,Regressions Complete,[14]; [20],0/10
same,Regressions Partial,[14]; [20],0/10
same,Median ΔT/ΔC in % day 20,"[14]; study 4, (1) 10 mg/kg PO daily days 11-20, 10 mg/kg",53%
same,Average body weight change in % per mouse at nadir,[14]; [21],−4.1 (18) %
same,Drug death,[14]; [21],0/10
same,Regressions Complete,[14]; [21],0/10
same,Regressions Partial,[14]; [21],0/10
same,Median ΔT/ΔC in % day 20,"[14]; study 4, (1) 20 mg/kg PO daily days 11-20, 20 mg/kg",41%
same,tolerability,"[14]; study 4, as single agents","well-tolerated, inducing minimal BWL"
"CCn1c(=O)c(-c2ccn[nH]2)cc2c(C)nc(N)nc21 [Compound (2b), 2-amino-8-ethyl-4-methyl-6-(1H-pyrazol-5-yl)pyrido[2,3-d]pyrimidin-7(8H)-one]",GI50,"[1]; Homo sapiens, all 81 cell lines, log 10-transformed data",1300 to 1400 nM
same,differences in activity between sensitive and insensitive cell lines,[1]; panel,10-20 fold
same,z-score MSC0765,[2],1.16
same,z-score MSC0765,[3],0.32
same,z-score MSC0765,[4],−0.05
same,z-score MSC0765,[5],−0.23
same,z-score MSC0765,[6],1.25
same,GI50,"[7]; Homo sapiens, HCT-116, non-sensitive, z score >1.5",> 4000 nM
same,z-score MSC0765,[7]; single agent,1.90
same,GI50,[8],1150 nM
same,z-score MSC0765,[8]; single agent,−0.20
same,GI50,"[9]; Homo sapiens, SK-BR-3, most sensitive, z-score <−1.5",< 500 nM
same,sensitivity,[9]; single agent,very sensitive
same,z-score MSC0765,[9]; single agent,−2.18
same,GI50,"[10]; Homo sapiens, MDA-MB-468, most sensitive, z-score <−1.5",< 500 nM
same,GI50,"[11]; COLO-678, non-sensitive, z score >1.5",> 4000 nM
same,activity in resting (arrested) PBMC,[12],no activity
same,ΔT/ΔC at the end of study,[13]; (2b) 20 mg/kg oral daily day 11 to day 17,80%
same,Average body weight change in % per mouse at nadir,[14]; [22],−6.7 (18) %
same,Drug death,[14]; [22],0/7
same,Median ΔT/ΔC in % day 18,[14]; [22],77%
same,Regressions Complete,[14]; [22],0/7
same,Regressions Partial,[14]; [22],1/7
same,Average body weight change in % per mouse at nadir,[14]; [23],−3.7 (15) %
same,Drug death,[14]; [23],0/7
same,Median ΔT/ΔC in % day 18,[14]; [23],71%
same,Regressions Complete,[14]; [23],0/7
same,Regressions Partial,[14]; [23],0/7
same,tolerability,"[14]; study 2, as single agents","well-tolerated, inducing minimal BWL"
same,Average body weight change in % per mouse at nadir,[14]; [24],−4.8 (20) %
same,Drug death,[14]; [24],0/10
same,Regressions Complete,[14]; [24],0/10
same,Regressions Partial,[14]; [24],0/10
same,tolerability,"[14]; study 4, as single agents","well-tolerated, inducing minimal BWL"
